{"source": "patent US8796302B2", "about": "(priority 2004, dated 2014)", "key": {"CD-1 mice given LPS/GalN [1]": {"system": "CD-1 mice given LPS/GalN", "experiment": "Serum ALT in LPS/GalN endotoxic shock", "type": "in vivo, mouse", "details": "for serum ALT level: 12 hrs after LPS/GalN", "procedure": "(§1) Endotoxic shock was induced in the mice by administering a single intraperitoneal dose of lipopolysaccharide/D-(+/−)Glactosomine (Sigma, St. Louis, Mo.) (LPS/GalN) (20 μg/700 mg/kg) in saline. To test whether DM has protective effects on septic shock, varying concentrations (6.25, 12.5 and 25 mg/kg) of DM were injected into the mice subcutaneously 30 min before, and 2, and 4 hr after the injection of LPS/GalN. Control mice received the same amount of saline. At different time points, the animals were killed, and serum and liver samples were collected.\n(§2) To examine the therapeutic effects of DM, animals were treated with […] DM at 30 min before LPS/GalN injection, and 30, 60 and 120 min after LPS/GalN administration. Serum ALT was measured to evaluate the therapeutic effects of the DM. Survival rate was evaluated within 12 hours after endotoxin administration.\nSerum alanine aminotransferase (ALT) activity was assayed as a marker of hepatocellular death using a commercially available kit (Infinite ALT, Sigma, St. Louis, Mo.). A portion of the liver was fixed in 10% neutral formalin, processed by standard histological techniques, stained with hematoxylin and eosin, and examined for morphological evidence of liver injury."}, "PGE2": {"system": "PGE2", "experiment": "PGE2 release (EIA) after LPS", "type": "cell-based, rat"}, "TNFα": {"system": "TNFα", "experiment": "Serum and liver TNFα (ELISA) in LPS/GalN endotoxic shock", "type": "in vivo, mouse", "procedure": "Blood was collected from the eye while the mice were anesthetized, and then perfused with saline. Perfused liver samples were collected and frozen at −70° C. The blood samples were stored at 4° C. overnight and then centrifuged at 1500×g at 4° C. for 15 min. Serum was collected and stored at −70° C. for ALT, and TNFα ELISA assays. The frozen liver samples were homogenized in 10 mg/ml cold lysis buffer (20 mM Tris, 0.25 M sucrose, 2 mM EDTA, 10 mM EGTA, 1% Triton X-100 and protein cocktail inhibitor), and then centrifuged at 35,000×g for 40 min. The supernatant was then collected for protein assay using BCA Protein Assay Reagent Kit (Prod#23227, PIERCE), and ELISA for TNFα.\nThe levels of TNFα in the serum and liver were determined as in Example 1.\nTNFα, an important factor that plays an important role in sepsis, was studied as a mechanism of the protective effect of DM in LPS/GalN-challenge mice. DM (12.5 mg/kg, […].) was administered to mice, followed by LPS/GalN challenge 30 min later. Serum and liver TNFα level was assessed using ELISA at the indicated time points."}, "CD-1 mice given LPS/GalN [2]": {"system": "CD-1 mice given LPS/GalN", "experiment": "Survival in LPS/GalN endotoxic shock", "type": "in vivo, mouse", "details": "for Rate of survival % / No. of animals survived: 12 hrs; for Rate of survival: 30 min before and 2, 4 hr after LPS/GalN; for Rate of survival / Survived animal: 12 hours", "procedure": "Animal studies were performed in accordance with National Institutes of Health Guidelines and with the approval of the Institute's Animal Care and Use Committee, and followed NIH guidelines. Male, CD-1 mice (6-week-old) were purchased from Charles River laboratories, fed on a standard diet and with tap water ad libitum for two weeks. Environmental conditions were standardized, including a room temperature of 21° C. and 12 hours artificial lighting. Mice were fasted 12 hrs before use.\nas §1, §2\nEndotoxic shock were induced in mice in the same was as Example 16. The mice were given LPS/GalN (20 μg/700 mg/kg, ip) with or without the administration of DM (10 mg/kg, 1 μg/kg and 100 pg/kg, s.c.) 30 min before LPS/GalN. The survival rate of the animals was evaluated 12 hrs after LPS/GalN treatment."}, "[3]": {"system": "neurons in neuron-enriched cultures", "experiment": "MAP-2 / TH immunostaining morphology of neuron-enriched cultures", "type": "cell-based, rat", "details": "7 days exposure; media conditioned 48 hours; VPA 0.6 mM", "procedure": "Neuron-enriched cultures were immunostained with MAP-2 for morphological examination. FIGS. 40A-40D show morphological features of neuron-enriched cultures were examined after incubation with vehicle (A), 0.6 mM VPA (B), ACM (C) or ACM-VPA (D) for 7 days and then immunocytostaining with MAP-2 antibody.\nThe immunostaining was carried out according to the following procedure. Formaldehyde (3.7%)-fixed cultures were treated with 1% hydrogen peroxide (10 min) followed by sequential incubation with blocking solution (30 min), primary antibody (overnight, 4° C.), biotinylated secondary antibody (2 hours), and ABC reagents (40 min) (Vector Laboratories, Burlingame, Calif.). The color development was achieved by the addition of 3,3′-diaminobenzidine. For morphological analysis, the images were recorded with an inverted microscope (Nikon, Tokyo, Japan) connected to a charge-coupled device camera (DAGE-MTI, Michigan City, Ind.) operated with the MetaMorph software (Universal Imaging Corporation, Downingtown, Pa.). For visual counting of TH-IR neurons, nine representative areas per well of the 24-well plate were counted under the microscope at 100× magnification.\nTo specifically visualize morphological changes in DA neurons, we immunostained neuron-enriched cultures with anti-TH antibody. […]"}, "primary rat microglia": {"system": "primary rat microglia", "experiment": "Microglia number (CyQUANT) in microglia-enriched cultures", "type": "cell-based", "procedure": "Primary rat microglia-enriched cultures were used to determine if VPA treatment affected the total number of microglia. Microglia cell number was determined as follows. Primary microglia-enriched cultures were prepared from the whole brains of 1-day-old rats as described previously. After one day in vitro were treated with the indicated concentrations of VPA (0.05, 0.1, 0.2, 0.4, 0.6, 0.8, 1.0, or 1.2 mM) for 48 h, or with 0.6 mM VPA for different times (6, 12, 24 or 48 h). […] The total number of microglia was counted by using the CyQUANT cell proliferation assay kit (Molecular Probes, Inc.)."}, "[4]": {"details": "DM 12.5 mg/kg 30 min before LPS/GalN, 1.5 and 2 hours"}}, "data": [{"smiles": "COc1ccc2c(c1)[C@@]13CCCC[C@H]1[C@@H](C2)N(C)CC3", "note": "[DM, d-3-methoxy-N-methylmorphinan]", "values": [{"measurement": "serum ALT level", "setting": "CD-1 mice given LPS/GalN [1]; DM 12.5 mg/kg", "value": "about 25 % of LPS/GalN group"}, {"measurement": "serum ALT level", "setting": "CD-1 mice given LPS/GalN [1]; DM 25 mg/kg", "value": "about 25 % of LPS/GalN group"}, {"measurement": "time-dependent reduction of serum ALT level", "setting": "CD-1 mice given LPS/GalN [1]; DM 30 min pre-treatment and 30, 60, 120 min post-treatments", "value": "the later the DM treatment, the less protective"}, {"measurement": "LPS-induced increase in the release of PGE2", "setting": "PGE2; DM 10^−5 M and 10^−14 M pretreatment", "value": "significantly decreased"}, {"measurement": "LPS-induced increase in the release of PGE2", "setting": "PGE2; DM 10^−10 M pretreatment", "value": "no significant reduction"}, {"measurement": "PGE2 production, post treatment", "setting": "PGE2; femtomolar DM after removal of LPS (20 ng/ml, 12 h), 24 h", "value": "reduction of NO and PGE2 production"}, {"measurement": "liver TNFα level", "setting": "TNFα; [4]", "value": "significantly decreased TNFα level"}, {"measurement": "serum TNFα level", "setting": "TNFα; [4]", "value": "significantly decreased TNFα level"}, {"measurement": "TNFα level", "setting": "TNFα; DM 30 min post LPS/GalN (data not shown)", "value": "suppression of TNFα level was also found"}, {"measurement": "Rate of survival %", "setting": "CD-1 mice given LPS/GalN [2]; DM 100 pg/kg s.c. 30 min before LPS/GalN", "value": 76.6, "unit": "%"}, {"measurement": "No. of animals survived", "setting": "CD-1 mice given LPS/GalN [2]; DM 100 pg/kg s.c., 47 animals in group", "value": 36}, {"measurement": "Rate of survival %", "setting": "CD-1 mice given LPS/GalN [2]; DM 1 ug/kg s.c. 30 min before LPS/GalN", "value": 58.8, "unit": "%"}, {"measurement": "No. of animals survived", "setting": "CD-1 mice given LPS/GalN [2]; DM 1 ug/kg s.c., 17 animals in group", "value": 10}, {"measurement": "Rate of survival", "setting": "CD-1 mice given LPS/GalN [2]; DM 6.25 mg/kg", "value": 67, "unit": "%"}, {"measurement": "Rate of survival", "setting": "CD-1 mice given LPS/GalN [2]; DM 6.25 mg/kg, listed as Dextromethorphan", "value": 66.6, "unit": "%"}, {"measurement": "Survived animal", "setting": "CD-1 mice given LPS/GalN [2]; DM 6.25 mg/kg, n = 12", "value": 8}, {"measurement": "Rate of survival %", "setting": "CD-1 mice given LPS/GalN [2]; DM 10 mg/kg s.c. 30 min before LPS/GalN", "value": 84.6, "unit": "%"}, {"measurement": "No. of animals survived", "setting": "CD-1 mice given LPS/GalN [2]; DM 10 mg/kg s.c., 26 animals in group", "value": 22}, {"measurement": "Rate of survival", "setting": "CD-1 mice given LPS/GalN [2]; DM 12.5 mg/kg", "value": "about 90%"}, {"measurement": "Rate of survival", "setting": "CD-1 mice given LPS/GalN [2]; DM 12.5 mg/kg, listed as Dextromethorphan", "value": 89.3, "unit": "%"}, {"measurement": "Survived animal", "setting": "CD-1 mice given LPS/GalN [2]; DM 12.5 mg/kg, n = 56", "value": 50}, {"measurement": "Rate of survival", "setting": "CD-1 mice given LPS/GalN [2]; DM 25 mg/kg", "value": "about 90%"}, {"measurement": "Rate of survival", "setting": "CD-1 mice given LPS/GalN [2]; DM 25 mg/kg, listed as Dextromethorphan", "value": 91.6, "unit": "%"}, {"measurement": "Survived animal", "setting": "CD-1 mice given LPS/GalN [2]; DM 25 mg/kg, n = 12", "value": 11}, {"measurement": "protection against LPS/GalN-induced lethal shock", "setting": "CD-1 mice given LPS/GalN [2]; DM 30 min post LPS/GalN challenge", "value": "also observed"}]}, {"smiles": "CCCC(CCC)C(=O)O", "note": "[VPA, Valproic acid]", "values": [{"measurement": "neurite outgrowth (MAP-2 immunostaining)", "setting": "[3]", "value": "Much smaller effects"}, {"measurement": "number of microglia, concentration dependence", "setting": "primary rat microglia; VPA 0.2 mM to 1.2 mM, 48 h", "value": "robust decrease in microglia number"}, {"measurement": "number of microglia, time course", "setting": "primary rat microglia; VPA 0.6 mM, 6-48 h, significant effect at 24 h and 48 h", "value": "time-dependently decreased the number of microglia"}, {"measurement": "loss of microglia", "setting": "primary rat microglia; VPA 0.8 mM, 48 h", "value": "about 80%"}]}]}
